Two compounds from BindingDB's records for doi:10.1016/j.ejmech.2014.06.016 (Ocean University of China, 2014) can be followed below.

The EC50 is the midpoint of the concentration-response curve.

Structures are written as SMILES.

A short description of the series: Inhibition of p-glycoprotein in human MDA435/LCC6MDR cells assessed as concentration required to reduce taxol IC50 by half after 5 days by MTS assay. On the technique in general: Tetrazolium dyes change colour on reduction, which living cells bring about.

`CCN(CC)c1ccc(Cc2c(Cc3ccc(OC)c(OC)c3)nc(NC(=O)c3cc(OC)c(OC)c(OC)c3)n2C)cc1`: the EC50 worked out at 0.213 µM.

Turning to `CCN(CC)c1ccc(Cc2c(Cc3ccc(OC)c(OC)c3)nc(N(C(=O)/C=C/c3cc(OC)c(OC)c(OC)c3)C(=O)/C=C/c3cc(OC)c(OC)c(OC)c3)n2C)cc1`, the EC50 came out at 0.211 µM.
